The results in this text go back to patent US11999727B2 (Tango Therapeutics, Inc., priority 2020, dated 2024).

Molecules are shown by their SMILES. Some results are limits rather than exact numbers.

The subject of test [1] is HAP1 MTAP-deleted cell line. As to the kind of experiment: Viability assay, MTAP-deleted cell line. The class given is cell-based. The following applies: Homo sapiens, HAP1, viability assay, MTAP-deleted cell line; read-out: HAP1 MTAP deleted viability. An excerpt: Table 1 additionally indicates IC50 values in a viability assay for the MTAP-deleted cell line (column 10), indicating the effect of treatment with compound on cell survival.

Test [2] deals with T1, PRMT5 (Homo sapiens, UniProt O14744).
T1 construct: purchased Viva (custom protein)
T1 sequence (O14744 whole entry): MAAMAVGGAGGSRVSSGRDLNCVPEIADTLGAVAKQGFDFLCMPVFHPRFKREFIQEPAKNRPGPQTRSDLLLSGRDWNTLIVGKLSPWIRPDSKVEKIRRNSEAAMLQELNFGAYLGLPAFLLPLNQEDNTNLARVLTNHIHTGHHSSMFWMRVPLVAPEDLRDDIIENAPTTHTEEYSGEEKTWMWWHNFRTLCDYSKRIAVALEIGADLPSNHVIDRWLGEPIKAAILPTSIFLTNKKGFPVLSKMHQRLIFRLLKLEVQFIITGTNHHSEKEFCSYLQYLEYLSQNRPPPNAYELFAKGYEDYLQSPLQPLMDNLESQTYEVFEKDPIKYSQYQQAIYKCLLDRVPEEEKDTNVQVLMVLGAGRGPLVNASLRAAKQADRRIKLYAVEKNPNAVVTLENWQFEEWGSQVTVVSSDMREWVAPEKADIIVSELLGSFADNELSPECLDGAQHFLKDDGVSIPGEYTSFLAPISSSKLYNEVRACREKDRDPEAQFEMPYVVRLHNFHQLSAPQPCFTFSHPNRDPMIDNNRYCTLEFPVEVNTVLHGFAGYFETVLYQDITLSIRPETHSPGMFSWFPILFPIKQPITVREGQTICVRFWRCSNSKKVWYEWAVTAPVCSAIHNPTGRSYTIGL
T1 sequence (Q9BQA1 whole entry partner): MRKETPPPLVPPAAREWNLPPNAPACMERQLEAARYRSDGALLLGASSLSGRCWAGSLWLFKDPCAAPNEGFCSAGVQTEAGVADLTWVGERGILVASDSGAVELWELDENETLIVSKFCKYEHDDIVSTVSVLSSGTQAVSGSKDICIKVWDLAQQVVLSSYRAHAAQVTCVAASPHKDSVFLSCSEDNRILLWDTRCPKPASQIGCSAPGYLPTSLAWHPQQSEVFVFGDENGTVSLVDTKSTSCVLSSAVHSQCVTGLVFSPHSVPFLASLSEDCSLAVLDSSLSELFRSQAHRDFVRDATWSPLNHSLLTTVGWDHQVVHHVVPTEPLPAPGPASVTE
As to the kind of experiment: PRMT5 biochemical IC50 assay with no cofactor. The following applies: PRMT5, no cofactor; read-out: No Cofactor/rel IC50. The text has this:
Table 1 indicates IC50 values (μM) against PRMT5 for exemplary compounds in the presence of SAM as cofactor, with no cofactor, and with MTA as cofactor, respectively (columns 4-6). […] Ki values can be calculated from the IC50 values as described in the Examples section. As detailed in the Examples section, for the assay performed in the presence of SAM, IC50=Ki×1.5 (Ki=IC50/1.5).

Test [3] has as its system HAP1 MTAP-intact cell line. As to the kind of experiment: SDMA in-cell western assay, HAP1 MTAP-intact. The format is cell-based. The following applies: Homo sapiens, HAP1, SDMA in-cell western, HAP1 MTAP-intact; read-out: MTAP HAP1 intact IC50. Summed up:
(§1)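 Isogenic HAP1 pair: the MTAP-intact line expresses endogenous MTAP, and the deleted line is MTAP-null. Symmetric dimethylarginine was detected by in-cell western and IC50 values derived for each line.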

Test [4] deals with HAP1 MTAP-deleted cell line. Put plainly: SDMA in-cell western assay, HAP1 MTAP-deleted. The format is cell-based. The note with it: for IC50: Homo sapiens, HAP1, SDMA in-cell western, HAP1 MTAP-deleted, read-out: HAP1 MTAP deleted IC50; for MTAP intact/deleted ratio: IC50 ratio HAP1 MTAP-intact / HAP1 MTAP-deleted, SDMA in-cell western. Summed up: as §1
Test [5] deals with T1, PRMT5. As to the kind of experiment: PRMT5 biochemical IC50 assay with SAM as cofactor. The following applies: PRMT5, SAM as cofactor; read-out: SAM IC50.
Test [6] has as its target T1, PRMT5. As to the kind of experiment: PRMT5 biochemical IC50 assay with MTA as cofactor. The note with it: PRMT5, MTA as cofactor; read-out: MTA IC50.

Take `C[C@@H]1CC[C@@H](c2ccc(OC3CCOC3)cc2)N(C(=O)C(=O)Nc2cncc(C(N)=O)c2)C1` (mixture of isomers) [Compound 264, rac-5-{2-[(2R,5S)-5-Methyl-2-[4-(oxolan-3-yloxy)phenyl]piperidin-1-yl]-2-oxoacetamido}pyridine-3-carboxamide]: the IC50 in test [1] is 1 to 10 µM; at PRMT5 [2], 0.05 to 0.5 µM; in test [3] it was more than 1 µM; in test [4] it was less than 0.1 µM; at PRMT5 [5] it was 0.05 to 0.5 µM; at PRMT5 [6], 0.05 to 0.5 µM. In test [4], the MTAP intact/deleted ratio result is listed as “A (an IC50 ratio greater than or equal to 10 fold)”.

In the case of `C[C@@H]1CC[C@@H](c2cccc(C(F)(F)F)c2)N(C(=O)C(=O)Nc2cncc(C(N)=O)c2)C1` (racemic) [Compound 265, rac-5-{2-[(2R,5S)-5-Methyl-2-[3-(trifluoromethyl)phenyl]piperidin-1-yl]-2-oxoacetamido}pyridine-3-carboxamide], the IC50 in test [1] is 1 to 10 µM; on PRMT5 [2], 0.05 to 0.5 µM; in test [3] it was more than 1 µM; in test [4], 0.1 to 1 µM; at PRMT5 [5], 0.05 to 0.5 µM; on PRMT5 [6], less than 0.05 µM. In test [4], the MTAP intact/deleted ratio entry is “A (an IC50 ratio greater than or equal to 10 fold)”.

In the case of `NC(=O)c1cncc(NC(=O)C(=O)N2C[C@@H](CO)CC[C@@H]2c2ccccc2)c1` (racemic) [Compound 266, 5-(2-(5-(hydroxymethyl)-2-phenylpiperidin-1-yl)-2-oxoacetamido)nicotinamide], the IC50 in test [1] was more than 10 µM; at PRMT5 [2] it was more than 0.5 µM; in test [3] it was more than 1 µM; in test [4], 0.1 to 1 µM; on PRMT5 [5] it was 0.05 to 0.5 µM; at PRMT5 [6], 0.05 to 0.5 µM. Further, in test [4], the MTAP intact/deleted ratio result is given as “A (an IC50 ratio greater than or equal to 10 fold)”.

On to `C[C@@H]1CC[C@@H](c2cccc(C(F)F)c2)N(C(=O)C(=O)Nc2cncc(C(N)=O)c2)C1` (racemic) [Compound 268, rac-5-{2-[(2R,5S)-2-[3-(Difluoromethyl)phenyl]-5-methylpiperidin-1-yl]-2-oxoacetamido}pyridine-3-carboxamide], for which the IC50 in test [1] was 1 to 10 µM; on PRMT5 [2], 0.05 to 0.5 µM; in test [3], more than 1 µM; in test [4], 0.1 to 1 µM; on PRMT5 [5], 0.05 to 0.5 µM; at PRMT5 [6], less than 0.05 µM. The MTAP intact/deleted ratio entry in test [4] is recorded as “A (an IC50 ratio greater than or equal to 10 fold)”.

With `C[C@@H]1CC[C@@H](c2ccc3c(c2)OCO3)N(C(=O)C(=O)Nc2cncc(C(N)=O)c2)C1` (racemic) [Compound 270, rac-5-{2-[(2R,5S)-2-(1,3-Dioxaindan-5-yl)-5-methylpiperidin-1-yl]-2-oxoacetamido}pyridine-3-carboxamide], the IC50 in test [1] is 1 to 10 µM; at PRMT5 [2] it was 0.05 to 0.5 µM; in test [3], more than 1 µM; in test [4], less than 0.1 µM; at PRMT5 [5] it was 0.05 to 0.5 µM; on PRMT5 [6], less than 0.05 µM. For the same molecule, the MTAP intact/deleted ratio result in test [4] is “A (an IC50 ratio greater than or equal to 10 fold)”.

As for `C[C@@H]1CC[C@@H](c2ccc(OC(F)F)cc2)N(C(=O)C(=O)Nc2cncc(C(N)=O)c2)C1` (racemic) [Compound 271, rac-5-{2-[(2R,5S)-2-[4-(Difluoromethoxy)phenyl]-5-methylpiperidin-1-yl]-2-oxoacetamido}pyridine-3-carboxamide], the IC50 in test [1] is 1 to 10 µM; at PRMT5 [2] it was 0.05 to 0.5 µM; in test [3], more than 1 µM; in test [4], 0.1 to 1 µM; at PRMT5 [5] it was 0.05 to 0.5 µM; on PRMT5 [6], less than 0.05 µM. For the same molecule, the MTAP intact/deleted ratio entry in test [4] was “A (an IC50 ratio greater than or equal to 10 fold)”.

In the case of `C[C@@H]1CC[C@@H](c2ccc3nncn3c2)N(C(=O)C(=O)Nc2cncc(C(N)=O)c2)C1` (racemic) [Compound 272, rac-5-{2-[(2R,5S)-5-Methyl-2-{[1,2,4]triazolo[4,3-a]pyridin-6-yl}piperidin-1-yl]-2-oxoacetamido}pyridine-3-carboxamide], the IC50 in test [1] is more than 10 µM; at PRMT5 [2], 0.05 to 0.5 µM; in test [3] it was more than 1 µM; in test [4], more than 1 µM; at PRMT5 [5], 0.05 to 0.5 µM; on PRMT5 [6], 0.05 to 0.5 µM. Besides, the MTAP intact/deleted ratio entry in test [4] is “C (an IC50 ratio of less than 3 fold)”.

As to `C[C@@H]1CC[C@@H](c2ccc(CC3CC3)cc2)N(C(=O)C(=O)Nc2cncc(C(N)=O)c2)C1` (racemic) [Compound 273, rac-5-{2-[(2R,5S)-2-[4-(Cyclopropylmethyl)phenyl]-5-methylpiperidin-1-yl]-2-oxoacetamido}pyridine-3-carboxamide], the IC50 in test [1] was 1 to 10 µM; on PRMT5 [2], 0.05 to 0.5 µM; in test [3], more than 1 µM; in test [4], 0.1 to 1 µM; at PRMT5 [5] it was 0.05 to 0.5 µM; at PRMT5 [6], less than 0.05 µM. In test [4], the MTAP intact/deleted ratio entry is listed as “A (an IC50 ratio greater than or equal to 10 fold)”.

On to `C[C@@H]1CC[C@@H](c2ccc(F)nc2)N(C(=O)C(=O)Nc2cncc(C(N)=O)c2)C1` (racemic) [Compound 276, rac-5-{2-[(2R,5S)-2-(6-Fluoropyridin-3-yl)-5-methylpiperidin-1-yl]-2-oxoacetamido}pyridine-3-carboxamide], for which the IC50 is more than 10 µM in test [1]; 0.05 to 0.5 µM at PRMT5 [2]; more than 1 µM in test [3]; 0.1 to 1 µM in test [4]; 0.05 to 0.5 µM on PRMT5 [5]; less than 0.05 µM on PRMT5 [6]. The MTAP intact/deleted ratio result in test [4] is “A (an IC50 ratio greater than or equal to 10 fold)”.

On to `C[C@@H]1CC[C@@H](c2ccc3c(c2)CCC3)N(C(=O)C(=O)Nc2cncc(C(N)=O)c2)C1` (racemic) [Compound 277, rac-5-{2-[(2R,5S)-2-(2,3-Dihydro-1H-inden-5-yl)-5-methylpiperidin-1-yl]-2-oxoacetamido}pyridine-3-carboxamide], for which the IC50 in test [1] was 1 to 10 µM; at PRMT5 [2] it was 0.05 to 0.5 µM; in test [3], more than 1 µM; in test [4] it was 0.1 to 1 µM; at PRMT5 [5], 0.05 to 0.5 µM; on PRMT5 [6], less than 0.05 µM. Also, the MTAP intact/deleted ratio entry in test [4] was “A (an IC50 ratio greater than or equal to 10 fold)”.

As to `C[C@@H]1CC[C@@H](c2cccc(OC(F)(F)F)c2)N(C(=O)C(=O)Nc2cncc(C(N)=O)c2)C1` (racemic) [Compound 279, rac-5-{2-[(2R,5S)-5-Methyl-2-[3-(trifluoromethoxy)phenyl]piperidin-1-yl]-2-oxoacetamido}pyridine-3-carboxamide], the IC50 in test [1] was 1 to 10 µM; on PRMT5 [2] it was 0.05 to 0.5 µM; in test [3], more than 1 µM; in test [4] it was 0.1 to 1 µM; at PRMT5 [5] it was 0.05 to 0.5 µM; at PRMT5 [6], less than 0.05 µM. For the same molecule, the MTAP intact/deleted ratio entry in test [4] is listed as “A (an IC50 ratio greater than or equal to 10 fold)”.

`C[C@@H]1CC[C@@H](c2ccc(Cl)c(N)c2)N(C(=O)C(=O)Nc2cncc(C(N)=O)c2)C1` (racemic) [Compound 280, rac-5-{2-[(2R,5S)-2-(3-Amino-4-chlorophenyl)-5-methylpiperidin-1-yl]-2-oxoacetamido}pyridine-3-carboxamide]: the IC50 in test [1] was 1 to 10 µM; at PRMT5 [2], 0.05 to 0.5 µM; in test [3], more than 1 µM; in test [4], 0.1 to 1 µM; at PRMT5 [5] it was 0.05 to 0.5 µM; on PRMT5 [6], less than 0.05 µM. Further, in test [4], the MTAP intact/deleted ratio result is recorded as “A (an IC50 ratio greater than or equal to 10 fold)”.
